# “Also recorded” adds a separate entry of the source. Residues, ends and D or L forms follow the SMILES beside them. No end group written: not given here. *: point of attachment. Hexanoyl(6-Ph) = O=C(CCCCCc1ccccc1)*
# How the values were obtained:
# [1] = system: virgin females of Heliothis virescens; assay: Pheromonotropic assay (injection); format: in vivo; conditions: 0.06-200 pmol, 60 min after injection, FIG. 5
# Method: Pupae of H. virescens were obtained from a laboratory colony maintained at the Insect Attractants, Behavior and Basic Biology Research Laboratory, USDA-ARS, in Gainesville, Fla. The pupae were separated by sex and the males were discarded. After eclosion, the females were held in 4-1 cages and provided with cotton wicks soaked with 5% sucrose solution. The insects were held at 25°±2° C, 65±3% relative humidity with a 12:12 (L:D) photoperiod. Virgin females were used for bioassays 2 and 3 days after eclosion during the 7th-8th hour of the photophase when endogenous levels of pheromone are very low (Abernathy, 1995, Regulation of sex pheromone production and oviposition in virgin females of noctuid moths, doctoral dissertation, University of Florida, Gainesville, Fla., pp. 1-107).
# Pheromone biosynthesis neuropeptide from H. zea (Hez--PBAN) and the carboranyl pseudopeptide Cbe--Thr--Pro--Arg--Leu--NH2 were dissolved in physiological saline (Christensen et al., 1991, Proc. Natl. Acad. Sci. USA, 88:4971-4975). Female H. virescens insects were injected through the side of the third abdominal segment using a 26-ga needle with 20 μl of the above solutions. Each female received a dose of 0.01, 0.03, 0.1, 0.3, 1, 3, 10, 30, 100 or 300 pmol. After 1 h of incubation, the terminal abdominal segments, which contain the pheromone gland, were excised and placed in 10 μl of hexane containing 10 ng each of internal standards (octadecane and nonadecane) used for quantitation and calculation of relative retention indices. The pheromone gland extracts were analyzed for the amount of (Z)-11-hexadecenal (Z11-16:AL), the major sex pheromone component of H. virescens (Klun et al., 1980, J. Chem. Ecol., 6:165-175) by capillary gas chromatography. Hewlett-Packard 5890 gas chromatographs were equipped with splitless injectors, flame ionization detectors, and 30 m×0.25 mm (i.d.) fused silica "SPB 10" (polar) or "SPB1" (apolar) columns (Supelco). Conditions of chromatography were as follows: initial temperature=60° C.; injector operated in the splitless mode for 0.5 min; oven temperature increased by 30° C./min after 1 min; final temperature=190° C. ("SPB10") or 200° C. ("SPB1"); helium carrier gas at a linear flow velocity of 18 cm/s. A Nelson Analytical 3000° acquisition system (Cupertino, Calif.) was used to collect and analyze the data (Teal et al., 1989, Proc. Natl. Acad. Sci. USA, 86:2488-2492).
# After the dose response of Hez--PBAN was completed, the […] dose was chosen to use for comparison with the carboranyl pseudopeptide assayed here. Insects were also injected with saline alone as a control. The pseudopeptide was prepared by dilution with saline as described above. Based on the dose-response for the activity of Hez--PBAN, […] were chosen to assess the pheromonotropic activity of the carboranyl pseudopeptide. Females were injected with 20 μl containing 0.01, 0.03, 0.1, 0.3, 1, 3, 10, 30, 100, or 300 pmol. Each bioassay consisted of one dose of several different peptides along with saline and Hez--PBAN controls. The amount of pheromone present in extracts of the pheromone glands of females from each group was compared with that produced by females injected with 5 pmol of Hez--PBAN during that particular bioassay. After all the bioassays were completed, the amount of pheromone produced by each insect was calculated as a percentage of the amount of pheromone produced by females treated with Hez--PBAN. Data were analyzed using one-way ANOVA and t-test with "STATVIEW" software. Variability was reported as SEM.
# The pheromonotropic activity of Hez--PBAN, Lom--MT--II and [6--Pha--Ala^0 ]Lom--MT--II was first determined by a series of injection bioassays. Peptides were dissolved in physiological saline (Christensen et al., ibid) and diluted to concentrations of 0.003, 0.01, 0.03, 0.1, 0.3, 1.0, 3.0 and 10.0 pmol/μl. Insects were injected through the side of the 3rd abdominal segment using a 26 ga. needle with 20 μl of the above solutions. […]
# [2] = system: virgin females of Heliothis virescens; assay: Pheromonotropic assay (topical application); format: in vivo; conditions: for pheromone production, topical 500 pmol/female in 80% acetonitrile: 80% acetonitrile in water; for pheromone production, topical 500 pmol/female in 80% acetonitrile / pheromone production, topical 500 pmol/female in DMSO / pheromone production, topical 500 pmol/female in water: FIG. 7; for pheromone production after topical application in DMSO: descaled cuticle
# Method: The amphiphilic carboranyl analog Cbe--Thr--Pro--Arg--Leu--NH2 was dissolved in water and solutions at concentrations of 5, 10, 25, 60, and 200 pmol/μl were prepared. The cuticular scales along the lateral side of the abdomen were removed with a 1 ml plastic pipet tip attached to house vacuum with a rubber hose. A low vacuum was applied to the apparatus and the pipet tip was gently passed over the cuticle until the scales were drawn by suction. After the scales were removed, 1 μl of peptide solution was applied to the surface of the cuticle and smoothed evenly over the prepared surface. […]
# Pupae of Heliothis virescens were obtained from a laboratory colony maintained at the Insect Attractants Behavior and Basic Biology Research Laboratory, USDA-ARS, Gainesville, Fla. The pupae were separated by sex and the females were held in 4-1 cages. Cages were inspected daily for newly eclosed adults which were transferred to new cages and provided with cotton wicks soaked with a 5% sucrose solution. The insects were held at 25°[…] C. and 65%±3% relative humidity with a 12:12 (L:D) photoperiod. Virgin females were used for bioassays 2 and 3 days after eclosion during the 7th-8th hour of the photophase when little or no pheromone is present in the gland (Teal et al., 1993, Can. Entomol., 153:355-366). The cuticular scales were removed from the lateral side of the abdomen using a plastic pipet tip attached to house vacuum using a rubber hose. A low vacuum was applied and the pipet tip was passed gently over the cuticle until the scales were drawn off by suction. Insects were returned to the incubator for 24 h after the scales were removed for most experiments. However, insects were not given a recovery period in studies in which peptides were applied in DMSO (see below).
# In initial studies we used dimethyl sulfoxide (DMSO) as a carrier to deliver Hez--PBAN or [6--Pha--Ala^0 ]Lom--MT--II for topical applications. […] We also assessed different carrier solvents for their ability to deliver these two peptides. Peptides were dissolved at a concentration of 500 pmol/μl in: DMSO, water, or 80% acetonitrile:20% water. Solutions were applied to the descaled abdomen in 1 μl of solvent as above. The insects were allowed to incubate for 1 h prior to excision and extraction of the pheromone gland. Extracts were analyzed for the amount of pheromone as above.
# The use of water as a carrier for [6--Pha--Ala^0 ]Lom--MT--II was also assessed in dose response and temporal activity studies. For dose response studies [6--Pha--Ala^0 ]Lom--MT--II was dissolved in water at concentrations of 5, 10, 25, 50, 75, 100, 250, 500, 750 and 1000 pmol/μl. Insects were incubated for 60 min after application of 1 μl of solution to the descaled abdomen. In temporal activity studies a 100 pmol/μl dose was selected. For these experiments insects were incubated for periods of 15, 30, 60, 120, or 180 min after application of 1 μl of solution to the descaled abdomen. The ability of the parent peptide, Lom--MT--II, to stimulate pheromone production when applied topically in water was assessed by applying doses of 50, 100, 250 and 500 pmol to the abdomen. Control treatments for this experiment included insects treated with only water and females treated by topical application of 100 pmol of [6--Pha--Ala^0 ]Lom--MT--II. After incubation the sex pheromone glands were excised, extracted and analyzed for the amount of pheromone.
# [3] = system: isolated cockroach (Leucophaea maderae) hindgut; conditions: values printed with reference numbers; cited from earlier work
# [4] = system: virgin females of Heliothis virescens; conditions: H. virescens, printed with reference number; cited from earlier work
# [5] = system: virgin females of Heliothis virescens; conditions: 100 pmole dose, cited from earlier work
# [6] = cited from earlier work
# [7] = system: isolated cockroach (Leucophaea maderae) hindgut; assay: Cockroach myotropic bioassay (isolated hindgut); format: cell-based; conditions: isolated hindgut, FIG. 2; listed as LPK
# Method: Leucophaea maderae cockroaches were taken from stock colonies maintained at 27° C. and fed dry dog food ad lib. Cockroach hindguts, free of central nervous system (CNS) tissue, were dissected, immersed in saline, and prepared for recording of myogenic activity as previously described (Holman et al., 1991, ibid). Threshold concentrations were determined for each analogue by adding a known quantity of peptide (dissolved in 0.5 ml bioassay saline) to the bioassay chamber containing the hindgut and observing the response on a Gould 2200S oscillograph recorder. The quantity of the peptide analogues was calculated from the values obtained for Phe and/or Leu in the amino acid analysis. The threshold concentration was defined as the minimum concentration of peptide in the chamber required to evoke an observable change in the frequency (50%) or amplitude of contractions (5%) within 1 min and sustained for 3 min. Threshold concentrations were obtained from five cockroach hindguts on 5 consecutive days for each peptide. Quantitative data for dose-response plots were obtained as previously described (Holman et al., 1991, ibid).
# corn earworm moth H. zea = conditions: cited from earlier work
# [8] = aqueous solution, 15 min to 3 hr
compound,measurement,setting,value
CC(C)C[C@H](NC(=O)[C@H](CCCNC(=N)N)NC(=O)[C@@H]1CCCN1C(=O)[C@@H](NC(=O)[C@H](Cc1ccccc1)NC(=O)[C@H](CC(=O)O)NC(=O)CNC(=O)[C@H](CCC(=O)O)NC(=O)[C@H](C)NC(=O)CCCCCc1ccccc1)[C@@H](C)O)C(N)=O [[6--Pha--Ala^0]Lom--MT--II] ({Hexanoyl(6-Ph)}-AEGDFTPRL-NH2),"pheromonotropic activity of injected peptide, compared",[1],"reduced the activity, compared to Lom--MT--II, at doses up to 6 pmol; also recorded: equivalent to Hez--PBAN at all other doses"
same,"pheromonotropic activity of injected peptide, compared",[1]; listed as [6--Pha--Ala^0]Lom--MT--II,pheromonotropic activity equivalent to Hez--PBAN
same,time after application at which gland extracts contained significant amounts of pheromone,"[2]; 100 pmol in water, FIG. 9",≤ 15 min
same,time of maximal activity after application,"[2]; 100 pmol in water, FIG. 9",60 min
same,"pheromone production, topical 500 pmol/female in 80% acetonitrile",[2]; 60 min,significant amounts of pheromone; also recorded: induced the production of pheromone
same,response to topical application of 5 and 10 pmol doses in DMSO,"[2]; DMSO carrier, 60 min, FIG. 6",produced pheromone
same,"amount of pheromone at 100 to 1000 pmol/female, topical in DMSO","[2]; DMSO carrier, FIG. 6",equivalent amounts of pheromone
same,pheromone production after topical application in DMSO,[2]; DMSO carrier,produced pheromone; also recorded: effective in stimulating pheromone production
same,"pheromone production, topical 500 pmol/female in DMSO",[2]; 60 min,equivalent amounts of pheromone
same,"concentration giving maximal pheromone stimulation, topical application",[2]; topically applied,100 picomoles/insect
same,dose up to which activity increased in a linear fashion (100-1000 pmol not different),"[2]; water carrier, 60 min, FIG. 8",100 pmol
same,"doses stimulating significantly more pheromone than just water, topical in water","[2]; water carrier, 60 min, FIG. 8",≥ 10 pmol
same,"pheromone production, topical 500 pmol/female in water",[2]; 60 min,significant amounts of pheromone
"LSDDMPATPADQEMYRQDPEQIDSRTKYFSPRL-NH2 [HezPBAN, reference compound]","pheromone versus water-only controls, time course, topical in water","[2]; 100 pmol in water, 15-180 min, FIG. 9",no different from controls at any time interval; also recorded: did not contain more pheromone than was present in extracts obtained from insects treated with water only
same,"pheromone production, topical 500 pmol/female in 80% acetonitrile",[2]; 60 min,no significant activity
same,amount required to stimulate significant pheromone production relative to [6--Pha--Ala^0 ]Lom--MT--II,[2]; DMSO carrier,ten fold more
same,"dose from which pheromone is produced, topical in DMSO","[2]; DMSO carrier, 60 min, FIG. 6",50 pmol/female
same,"amount of pheromone at 100 to 1000 pmol/female, topical in DMSO","[2]; DMSO carrier, FIG. 6",equivalent amounts of pheromone
same,pheromone production after topical application in DMSO,[2]; DMSO carrier,produced pheromone; also recorded: effective in stimulating pheromone production
same,"pheromone production, topical 500 pmol/female in DMSO",[2]; 60 min,equivalent amounts of pheromone
same,pheromone production when applied to the surface of the cuticle in water,[2]; water carrier,failed to stimulate production of significant amounts of pheromone
same,"pheromone production, topical 500 pmol/female in water",[2]; 60 min,no significant activity
same,"Threshold Concentration, myostimulation of the isolated cockroach hindgut",[3],"2,600 pM"
same,"ED50, pheromone production via injection",[4],1.0 pmol
same,Maximal Response via injection (dose),[4],5.0 pmol
same,pheromone production over control group after topical aqueous application,"[5]; 15 min, 1 hr, 2 hr, 3 hr following treatment, listed as PBAN",does not lead to production of statistically different levels of pheromone production
same,"ED50, pheromone production via topical application",[5]; [8],Inactive
same,Maximal Response via topical application,[5]; [8],Inactive
same,share of orally administered peptide entering the hemolymph through the gut wall,[6]; oral administration,approximately 5%
"pQTSPhe--Thr--Pro--Arg--Leu--NH2 (pQTS-FTPRL-NH2) [octapeptide leucopyrokinin of the cockroach Leucophaea maderae, reference compound]",reversibility of myostimulatory response by saline rinse,[7],immediately reversed by a saline rinse; also recorded: immediately vanished following a saline rinse; also recorded: subsides immediately following a saline rinse
same,"Threshold Concentration, myostimulation of the isolated cockroach hindgut",[3],650 pM
same,Maximal Response via injection (dose),corn earworm moth H. zea; data from H. zea,70 pmol
same,"ED50, pheromone production via injection",corn earworm moth H. zea; data from the related corn earworm moth H. zea,5 pmol
proctolin,fate of ingested peptide in the gut,[6]; in vivo,rendered inactive in the gut
